In the first test the test system is Pyricularia oryzae. Nature of the test: microbe, parasite or virus in culture. The following applies: 168 h, read-out: control compared to the untreated check. It counts as cell-based.
For `CS(=O)(=NCc1cccc(Cl)c1)c1ccc(-c2noc(C(F)(F)F)n2)cc1` (stereo not drawn) [Compound 182, ((3-chlorobenzyl)imino)(methyl)(4-(5-(trifluoromethyl)-1,2,4-oxadiazol-3-yl)phenyl)-λ^6-sulfanone], the inhibition of growth at 300 ppm is above 70%.

As to `CS(=O)(=NCc1cccc(-c2noc(C(F)(F)F)n2)c1)c1ccc(F)cc1` (stereo not drawn) [Compound 145, (4-fluorophenyl)(methyl)((3-(5-(trifluoromethyl)-1,2,4-oxadiazol-3-yl)benzyl)imino)-λ^6-sulfanone], the inhibition of growth at 300 ppm is above 70%.

As for `CS(=O)(=Nc1ccc(-c2noc(C(F)(F)F)n2)cc1F)c1ccc(Cl)cc1` (stereo not drawn) [Compound 167, (4-chlorophenyl)((2-fluoro-4-(5-(trifluoromethyl)-1,2,4-oxadiazol-3-yl)phenyl)imino)(methyl)-λ^6-sulfanone], the inhibition of growth at 300 ppm was above 70%.

In the case of `CS(=O)(=NC(=O)c1ccc(-c2noc(C(F)(F)F)n2)cc1)c1ccccc1F` (stereo not drawn) [Compound 3, N-((2-fluorophenyl)(methyl)(oxo)-λ^6-sulfanylidene)-4-(5-(trifluoromethyl)-1,2,4-oxadiazol-3-yl)benzamide], the inhibition of growth at 300 ppm was above 70%.

For the compound `CS(=O)(=Nc1cccc(-c2noc(C(F)(F)F)n2)c1)c1ccccc1` (stereo not drawn) [Compound 122, methyl(phenyl)((3-(5-(trifluoromethyl)-1,2,4-oxadiazol-3-yl)phenyl)imino)-λ^6-sulfanone], the inhibition of growth at 300 ppm was above 70%.

For `Cc1cccc(S(C)(=O)=Nc2cccc(-c3noc(C(F)(F)F)n3)c2)c1` (stereo not drawn) [Compound 114, methyl(m-tolyl)((3-(5-(trifluoromethyl)-1,2,4-oxadiazol-3-yl)phenyl)imino)-λ^6-sulfanone], the inhibition of growth at 300 ppm was above 70%.

`COc1ccc(S(C)(=O)=Nc2ccc(-c3noc(C(F)(F)F)n3)cc2F)cc1` (stereo not drawn) [Compound 171, ((2-fluoro-4-(5-(trifluoromethyl)-1,2,4-oxadiazol-3-yl)phenyl)imino)(4-methoxyphenyl)(methyl)-λ^6-sulfanone]: the inhibition of growth at 300 ppm was above 70%.

Consider `CS(=O)(=NCc1cccc(-c2noc(C(F)(F)F)n2)c1)c1ccc(Br)cc1F` (stereo not drawn) [Compound 147, (4-bromo-2-fluorophenyl)(methyl)((3-(5-(trifluoromethyl)-1,2,4-oxadiazol-3-yl)benzyl)imino)-λ^6-sulfanone], for which the inhibition of growth at 300 ppm is above 70%.

As to `CS(=O)(=NCc1cccc(-c2noc(C(F)(F)F)n2)c1)c1nccs1` (stereo not drawn) [Compound 144, methyl(thiazol-2-yl)((3-(5-(trifluoromethyl)-1,2,4-oxadiazol-3-yl)benzyl)imino)-λ^6-sulfanone], the inhibition of growth at 300 ppm is above 70%.

Take `CS(=O)(=NCc1ccc(-c2noc(C(F)(F)F)n2)cc1)c1ccccn1` (stereo not drawn) [Compound 27, methyl(pyridin-2-yl)((4-(5-(trifluoromethyl)-1,2,4-oxadiazol-3-yl)benzyl)imino)-λ^6-sulfanone]: the inhibition of growth at 300 ppm is above 70%.

For `CS(=O)(=NCc1cccc(-c2noc(C(F)(F)F)n2)c1)c1ccc(Cl)cc1` (stereo not drawn) [Compound 143, (4-chlorophenyl)(methyl)((3-(5-(trifluoromethyl)-1,2,4-oxadiazol-3-yl)benzyl)imino)-λ^6-sulfanone], the inhibition of growth at 300 ppm was above 70%.

Regarding `CS(=O)(=NCc1ccc(F)cc1F)c1ccc(-c2noc(C(F)(F)F)n2)cc1` (stereo not drawn) [Compound 184, ((2,4-difluorobenzyl)imino)(methyl)(4-(5-(trifluoromethyl)-1,2,4-oxadiazol-3-yl)phenyl)-λ^6-sulfanone], the inhibition of growth at 300 ppm is above 70%.

In the case of `Cc1ccc(S(C)(=O)=Nc2ccc(-c3noc(C(F)(F)F)n3)cc2)cc1` (stereo not drawn) [Compound 130, methyl(p-tolyl)((4-(5-(trifluoromethyl)-1,2,4-oxadiazol-3-yl)phenyl)imino)-λ^6-sulfanone], the inhibition of growth at 300 ppm was above 70%.

On to `O=S1(=NCc2cccc(-c3noc(C(F)(F)F)n3)c2)CCOCC1` [Compound 149, 4-((3-(5-(trifluoromethyl)-1,2,4-oxadiazol-3-yl)benzyl)imino)-1,4λ^6-oxathiane 4-oxide], for which the inhibition of growth at 300 ppm is above 70%.

Turning to `CS(=O)(=NCc1ccc(-c2noc(C(F)(F)F)n2)cc1)c1ccccc1F` (stereo not drawn) [Compound 29, (2-fluorophenyl)(methyl)((4-(5-(trifluoromethyl)-1,2,4-oxadiazol-3-yl)benzyl)imino)-λ^6-sulfanone], the inhibition of growth at 300 ppm is above 70%.

As for `CC(C)S(=O)(=NCc1ccc(-c2noc(C(F)(F)F)n2)cc1)c1ccc(Cl)cc1` (stereo not drawn) [Compound 152, (4-chlorophenyl)(isopropyl)((4-(5-(trifluoromethyl)-1,2,4-oxadiazol-3-yl)benzyl)imino)-λ^6-sulfanone], the inhibition of growth at 300 ppm was above 70%.

As to `CS(=O)(=NCc1cccc(-c2noc(C(F)(F)F)n2)c1)c1cc(F)ccc1Br` (stereo not drawn) [Compound 146, (2-bromo-5-fluorophenyl)(methyl)((3-(5-(trifluoromethyl)-1,2,4-oxadiazol-3-yl)benzyl)imino)-λ^6-sulfanone], the inhibition of growth at 300 ppm is above 70%.

For `CS(=O)(=Nc1ccc(-c2noc(C(F)(F)F)n2)cc1F)c1ccccc1` (stereo not drawn) [Compound 166, ((2-fluoro-4-(5-(trifluoromethyl)-1,2,4-oxadiazol-3-yl)phenyl)imino)(methyl)(phenyl)-λ^6-sulfanone], the inhibition of growth at 300 ppm is above 70%.

In the case of `CS(=O)(=NCc1cccc(F)c1)c1ccc(-c2noc(C(F)(F)F)n2)cc1` (stereo not drawn) [Compound 185, ((3-fluorobenzyl)imino)(methyl)(4-(5-(trifluoromethyl)-1,2,4-oxadiazol-3-yl)phenyl)-λ^6-sulfanone], the inhibition of growth at 300 ppm is above 70%.

On to `CC(C)S(=O)(=NCc1ccc(-c2noc(C(F)(F)F)n2)cc1)c1ccccc1` (stereo not drawn) [Compound 151, isopropyl(phenyl)((4-(5-(trifluoromethyl)-1,2,4-oxadiazol-3-yl)benzyl)imino)-λ^6-sulfanone], for which the inhibition of growth at 300 ppm is above 70%.

`CS(=O)(=Nc1ccc(-c2noc(C(F)(F)F)n2)cc1F)c1cccc(F)c1` (stereo not drawn) [Compound 169, ((2-fluoro-4-(5-(trifluoromethyl)-1,2,4-oxadiazol-3-yl)phenyl)imino)(3-fluorophenyl)(methyl)-λ^6-sulfanone]: the inhibition of growth at 300 ppm was above 70%.

On to `CS(=O)(=Nc1ccc(-c2noc(C(F)(F)F)n2)cc1)c1ccc(C(F)(F)F)cc1` (stereo not drawn) [Compound 19, methyl((4-(5-(trifluoromethyl)-1,2,4-oxadiazol-3-yl)phenyl)imino)(4-(trifluoromethyl)phenyl)-λ^6-sulfanone], for which the inhibition of growth at 300 ppm was above 70%.

Take `COc1cccc(S(C)(=O)=Nc2ccc(-c3noc(C(F)(F)F)n3)cc2)c1` (stereo not drawn) [Compound 106, (3-methoxyphenyl)(methyl)((4-(5-(trifluoromethyl)-1,2,4-oxadiazol-3-yl)phenyl)imino)-λ^6-sulfanone]: the inhibition of growth at 300 ppm is above 70%.

Consider `CS(=O)(=Nc1ccc(-c2noc(C(F)(F)F)n2)nc1)c1ccc(C(F)(F)F)cc1` (stereo not drawn) [Compound 124, methyl((6-(5-(trifluoromethyl)-1,2,4-oxadiazol-3-yl)pyridin-3-yl)imino)(4-(trifluoromethyl)phenyl)-λ^6-sulfanone], for which the inhibition of growth at 300 ppm is above 70%.

For `CS(=O)(=Nc1ccc(-c2noc(C(F)(F)F)n2)cc1)c1ccc(F)c(F)c1` (stereo not drawn) [Compound 97, (3,4-difluorophenyl)(methyl)((4-(5-(trifluoromethyl)-1,2,4-oxadiazol-3-yl)phenyl)imino)-λ^6-sulfanone], the inhibition of growth at 300 ppm is above 70%.

With `CS(=O)(=Nc1ccc(-c2noc(C(F)(F)F)n2)cc1F)c1ccccc1F` (stereo not drawn) [Compound 165, ((2-fluoro-4-(5-(trifluoromethyl)-1,2,4-oxadiazol-3-yl)phenyl)imino)(2-fluorophenyl)(methyl)-λ^6-sulfanone], the inhibition of growth at 300 ppm is above 70%.

In the case of `COc1cccc(S(C)(=O)=Nc2ccc(-c3noc(C(F)(F)F)n3)nc2)c1` (stereo not drawn) [Compound 127, (3-methoxyphenyl)(methyl)((6-(5-(trifluoromethyl)-1,2,4-oxadiazol-3-yl)pyridin-3-yl)imino)-λ^6-sulfanone], the inhibition of growth at 300 ppm is above 70%.

In the case of `CS(=O)(=NCc1ccc(F)cc1)c1ccc(-c2noc(C(F)(F)F)n2)cc1` (stereo not drawn) [Compound 183], the inhibition of growth at 300 ppm was above 70%.

For `CS(=O)(=NCc1cccc(-c2noc(C(F)(F)F)n2)c1)c1ccc(F)c(F)c1` (stereo not drawn) [Compound 141, (3,4-difluorophenyl)(methyl)((3-(5-(trifluoromethyl)-1,2,4-oxadiazol-3-yl)benzyl)imino)-sulfanone], the inhibition of growth at 300 ppm is above 70%.

The next test relates to Alternaria solani. The test is described as follows: Alternaria solani (early blight of tomato/potato) radial mycelial growth on Potato Dextrose Agar. In kind it is cell-based. The following applies: 168 h, Potato Dextrose Agar, 25° C., 60% relative humidity, seven days, read-out: control compared to the untreated check. As for the experimental part: Example 4: Alternaria solani (Early Blight of Tomato/Potato)
Compounds were dissolved in 0.3% DMSO & then added to Potato Dextrose Agar medium just prior to dispensing it into petri dishes. 5 mL medium with compound in the desired concentration was dispensed into 60 mm sterile petri-plates. After solidification each plate was seeded with 5 mm size mycelial disc taken form periphery of actively growing virulent culture plate. Plates were incubated in growth chambers at 25° C. temperature and 60% relative humidity for seven days and radial growth was measured.
As to `COc1cccc(S(=O)(=O)NC(=O)c2ccc(-c3noc(C(F)(F)F)n3)cc2)c1` [Compound 158, N-((3-methoxyphenyl)sulfonyl)-4-(5-(trifluoromethyl)-1,2,4-oxadiazol-3-yl)benzamide], the inhibition of growth at 300 ppm was above 70%.

The test system of a further test is Phakopsora pachyrhizi. Nature of the test: Phakopsora pachyrhizi test in soybean, preventive spray. It counts as in vivo. The following applies: preventive spray on soybean plants, inoculated one day after treatment, greenhouse 25° C., 90% relative humidity, read-out: control (efficacy, disease severity rating) compared to the untreated check. As for the experimental part: Example 8: Phakopsora pachyrhizi Test in Soybean
Compounds were dissolved in 2% DMSO/Acetone & then mixed with water to the calibrated spray volume of 50 mL and poured into the spray bottles for further applications.
To test the preventive activity of compounds, healthy young soybean plants raised in the greenhouse were sprayed with active compound preparation at the stated application rates inside the spray cabinets using hallowcone nozzles. One day after treatment, the plants were inoculated with spore suspension containing 2.1×10^6 Phakopsora pachyrhizi inoculum. The inoculated plants were then kept in greenhouse chamber at 25° C. temperature & 90% relative humidity for disease expression.
A visual assessment of compound's performance was carried out by rating the disease severity (0-100% scale) on treated plants on 3, 7, 10 & 15 days after application. Efficacy (% control) of the compounds was calculated by comparing the disease rating in the treatment with the one of the untreated control. The sprayed plants were also assessed for compound's plant compatibility by recording symptoms like necrosis, chlorosis & stunting.
`CS(=O)(=NC(=O)c1ccc(-c2noc(C(F)(F)F)n2)cc1)c1ccccc1F` (stereo not drawn) [Compound 3, N-((2-fluorophenyl)(methyl)(oxo)-λ^6-sulfanylidene)-4-(5-(trifluoromethyl)-1,2,4-oxadiazol-3-yl)benzamide]: the pest or weed control at 500 ppm is above 90%.

Consider `CS(=O)(=NCc1ccc(-c2noc(C(F)(F)F)n2)cc1)c1ccccn1` (stereo not drawn) [Compound 27, methyl(pyridin-2-yl)((4-(5-(trifluoromethyl)-1,2,4-oxadiazol-3-yl)benzyl)imino)-λ^6-sulfanone], for which the pest or weed control at 500 ppm was above 90%.

With `CS(=O)(=Nc1ccc(-c2noc(C(F)(F)F)n2)cc1)c1ccc(C(F)(F)F)cc1` (stereo not drawn) [Compound 19, methyl((4-(5-(trifluoromethyl)-1,2,4-oxadiazol-3-yl)phenyl)imino)(4-(trifluoromethyl)phenyl)-λ^6-sulfanone], the pest or weed control at 500 ppm is above 90%.

The record behind these values is patent US11286242B2 (priority 2018, dated 2022).
